Laboratory results taken from patent US5220050A, “Peptide mimetic compounds useful as platelet aggregation inhibitors” (G. D. Searle & Co., priority 1991, dated 1993).
Counter-ions that a name gives are not always drawn.

Columns and labels:
[1] = test system: Platelet Aggregation in Dog PRP; assay: In-Vitro Platelet Aggregation in PRP (ADP induced); format: cell-based; settings: Canis lupus familiaris, Platelet, in-vitro
Protocol: Healthy male or female dogs were fasted for 8 hours prior to drawing blood; then 30 ml whole blood was collected using a butterfly needle and 30 cc plastic syringe with 3 ml of 0.129 M buffered sodium citrate (3.8%). The syringe was rotated carefully as blood was drawn to mix the citrate. Platelet-rich plasma (PRP) was prepared by centrifugation at 975×g for 3.17 minutes at room temperature, allowing the centrifuge to coast to a stop without braking. The PRP was removed from the blood with a plastic pipette and placed in a plastic capped, 50 ml Corning conical sterile centrifuge tube which was held at room temperature. Platelet poor plasma (PPP) was prepared by centrifuging the remaining blood at 2000×g for 15 minutes at room temperature allowing the centrifuge to coast to a stop without braking. The PRP was adjusted with PPP to a count of 2-3×10^8 platelets per ml. 400 μl of the PRP preparation and 50 μl of the compound to be tested or saline were preincubated for 1 minute at 37° C. in a BioData aggregometer (BioData, Horsham, Pa.). 50 μl of adenosine 5'diphosphate (ADP) (50 μm final concentration) was added to the cuvettes and the aggregation was monitored for 1 minute. All compounds are tested in duplicate. Results are calculated as follows:
Percent of control=[(maximal OD minus initial OD of compound) divided by (maximal OD minus initial OD of control saline)]×100. The % inhibition=100-(percent of control).

[2] = test system: collagen induced platelet aggregation; assay: Inhibition of ex vivo collagen induced aggregation after administration to dogs; format: in vivo, dogs (Beagles); settings: dog, intragastric or intravenous; for inhibition in vivo at 10 mg/kg / inhibition in vivo at 30 mg/kg / inhibition in vivo at 20 mg/kg: Canis lupus familiaris, Platelet, read-out: Max % Inhibition
Protocol: The purpose of this assay is to determine the effects of antiplatelet compounds on ex vivo collagen induced platelet aggregation when administered either intravenously or orally to dogs.
Pretreatment (control) blood samples are drawn from either conscious or anesthetized dogs (Beagles) and centrifuged to prepare platelet rich plasma (PRP). Aggregatory response to collagen is measured in an aggregometer and used as Control.
In Table B the designation "NT" means "Not Tested". Also in Table B, two readings given in a single box indicate that two trials, rather than a single trial, were run for that particular compound in that particular assay.

Row | SMILES | IC50 [1] | inhibition in vivo at 10 mg/kg ([2]; dose 10 mg/Kg) | Duration ([2]; dose 10 mg/Kg) | inhibition in vivo at 30 mg/kg ([2]; dose 30 mg/Kg) | Duration ([2]; dose 30 mg/Kg) | inhibition in vivo at 20 mg/kg ([2]; dose 20 mg/Kg) | Duration ([2]; dose 20 mg/Kg)
1 | CC(CC(=O)O)NC(=O)CCCCc1ccc(C(=N)N)cc1 (centres unmarked) [3-[[5-[4-(Aminoiminomethyl)phenyl]-1-oxopentyl]amino]butanoic acid] | 1.2 µM | 80% | 5 h | – | – | – | –
2 | CCOC(=O)CC(C)NC(=O)CCCCc1ccc(C(=N)N)cc1 (centres unmarked) [Ethyl 3-[[5-[4-(aminoiminomethyl)phenyl]-1-oxopentyl]amino]butanoate] | 5 µM | 90% | – | 100% | > 24 h | – | –
3 | CCOC(=O)CC(NC(=O)CCCCc1ccc(C(=N)N)cc1)c1ccccc1 (stereo not drawn) [Ethyl β-[[5-[4-(aminoiminomethyl)phenyl]-1-oxopentyl]amino]benzenepropanoate] | 5.3 µM | 83% | – | 100% | > 24 h | – | –
4 | N=C(N)c1ccc(CCCCC(=O)NC(CC(=O)OC2CCCCC2)c2cccnc2)cc1 (stereo not drawn) [cyclohexyl β-[[5-[4-(aminoiminomethyl)phenyl]-1-oxopentyl]amino]-3-pyridinepropanoate] | 2.3 µM | 87% | 3 h | – | – | – | –
5 | CCOC(=O)CC(NC(=O)CCCCc1ccc(C(=N)N)cc1)c1ccc(OCC)cc1 (stereo not drawn) [ethyl β-[[5-[4-(aminoiminomethyl)phenyl]-1-oxopentyl]amino]-4-ethoxybenzenepropanoate] | – | – | – | – | – | 0% | 0 h
6 | CCOC(=O)CC(NC(=O)CCCCc1ccc(C(=N)N)cc1)c1ccc(-c2ccccc2)cc1 (stereo not drawn) [ethyl β-[[5-[4-(aminoiminomethyl)phenyl]-1-oxopentyl]amino][1,1'-biphenyl]-4-propanoate] | – | – | – | 0% | – | – | –
7 | CCOC(=O)CC(Cc1ccccc1)NC(=O)CCCCc1ccc(C(=N)N)cc1 (stereo not drawn) [ethyl β-[[5-[4-(aminoiminomethyl)phenyl]-1-oxopentyl]amino]benzenebutanoate] | – | – | – | – | – | 30% | 1.5 h
8 | CCOC(=O)CC(CCc1ccccc1)NC(=O)CCCCc1ccc(C(=N)N)cc1 (stereo not drawn) [ethyl β-[[5-[4-(aminoiminomethyl)phenyl]-1-oxopentyl]amino]benzenepentanoate] | – | – | – | 0% | – | – | –
9 | N=C(N)c1ccc(CCCCC(=O)NC(CC(=O)O)c2ccccc2)cc1 (stereo not drawn) [β-[[5-4-(aminoiminomethyl)phenyl]-1-oxopentyl]amino]benzenepropanoic acid, acetate salt] | 5.3 µM | – | – | 34% | < 2 h | – | –
